Data from patent publication US5286733A, “Substituted 3-piperidinealkanoates and alkanones and compositions and method of use thereof” (Sterling Winthrop Inc., priority 1992, dated 1994).
Read-outs that look alike come from different tables or passages of the source.

Molecular target: T1, sigma receptors (Cavia porcellus, UniProt Q60492)
T1 construct: Brain tissue was prepared from male Hartley guinea pigs; tissue Hazelton Labs, Denver, Pa; (animals); host or cells: guinea pig brain membranes
Assay: sigma receptor binding activity, [3H]-(+)-pentazocine binding to guinea pig brain membranes
Parameters: species or system male Hartley guinea pigs
Settings: for inhibition at 10 µM: read-out: Percent Inhibition (of [3H]-(+)-pentazocine binding)
Protocol: Brain tissue was prepared from male Hartley guinea pigs (Hazelton Labs, Denver, Pa.) which were anesthetized with CO2 and sacrificed by decapitation. All animal care and use procedures were in accord with the "Guide for the Care and Use of Laboratory Animals" (NIH Publ. No 86-23, 1985). Homogenization was performed in 10 volumes (wt/vol) of 0.32M sucrose with a Brinkmann Polytron at setting 5, 30 sec. The homogenate was centrifuged at 900 x g for 10 min at 4° C., and the supernatant was collected and centrifuged at 22,000 x g for 20 min at 4° C. The pellet was resuspended in 10 volumes of Tris-HCl buffer (50 mM, pH 7.4), incubated at 37° C. for 30 min, and centrifuged at 22,000 x g for 20 min at 4° C. Following this, the pellet was resuspended in Tris buffer and frozen in 5-10 mL aliquots corresponding to a tissue concentration of 100 mg/mL, at -70° C. Binding characteristics of the membranes were stable for at least one month when stored at -70° C.
On the day of the assay, membrane aliquots were thawed, resuspended in fresh Tris-HCl buffer and stored on ice until use. Each assay tube contained 100 μL of [3H]-(+)-pentazocine at a final concentration of approximately 0.5 nM, 100 μL of various concentrations of the compounds of interest, 500 μL of the tissue suspension and 300 μL of buffer to a final assay volume of 1 mL and a final tissue concentration of approximately 8 mg/tube, corresponding to approximately 0.15 mg protein/tube. Nonspecific binding was defined by addition of a final concentration of 1 μM haloperidol to blank tubes. All tubes were incubated at 37° C. for 150 min before termination of the reaction by rapid filtration over Whatman GF/B glass fiber filters that were presoaked in a solution of 0.5% polyethyleneimine for at least 1 hr prior to use. Filters were washed with three 4 ml volumes of cold Tris-HCl buffer.
Following addition of scintillation cocktail, samples were allowed to equilibrate for at least 4 hr. The amount of bound radioactivity was determined by liquid scintillation spectrometry using a Beckman LS 5000 TA liquid scintillation counter with an efficiency for tritium of approximately 60%. The results are reported as a percent (%) inhibition of binding at 10 μM.
Scatchard parameters and inhibition constants (Ki values) for the binding of test compounds were also calculated using the EBDA/LIGAND program (McPherson, J. Pharmacol. Meth. 1985, 14, 213-228), purchased from Elsevier/Biosoft, Inc. The Ki values are expressed as the mean ±SEM of at least three separate determinations performed in triplicate.

[1] = at 10 μM, guinea pig brain membranes, approximately 0.5 nM [3H]-(+)-pentazocine, 37° C., 150 min

T1 sequence (Q60492 whole entry): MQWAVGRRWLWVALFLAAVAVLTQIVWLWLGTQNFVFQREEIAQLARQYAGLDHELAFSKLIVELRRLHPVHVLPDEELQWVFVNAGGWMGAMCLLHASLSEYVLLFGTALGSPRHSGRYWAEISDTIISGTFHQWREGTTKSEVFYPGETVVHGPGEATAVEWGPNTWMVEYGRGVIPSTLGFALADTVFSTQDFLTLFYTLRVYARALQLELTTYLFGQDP

Compound | inhibition at 10 µM [1] [%] | inhibition at 10 µM [%] | Ki (mean ±SEM of at least three separate determinations performed in triplicate, [3H]-(+)-pentazocine, EBDA/LIGAND) [nM]
CCOC(=O)CC[C@]1(C)[C@H](C)CCN(C)[C@H]1C (relative stereo) [Example 1, ethyl 3-(1,2,3,4-tetramethyl-3-piperidine)propanoate] | 70 |  | 
C[C@@H]1CCN(C)[C@@H](C)[C@]1(C)CCC(=O)CCC1CCCC1 (relative stereo) [Example 2, 1-cyclopentyl-5-(1,2,3,4-tetramethyl-3-piperidinyl)-3-pentanone] |  | 100 | 
C[C@@H]1CCN[C@@H](C)[C@]1(C)CCC(=O)CCC1CCCC1 (relative stereo) [Example 3b, 1-cyclopentyl-5-(2,3,4-trimethyl-3-piperidinyl)-3-pentanone] | 96 |  | 
C[C@@H]1CCN(CC2(O)CC2)[C@@H](C)[C@]1(C)CCC(=O)CCC1CCCC1 (relative stereo) [Example 3c] | 98 |  | 
C[C@@H]1CCN(C)[C@@H](C)[C@]1(C)CCC(=O)c1ccoc1 (relative stereo) [Example 4, 1-(3-furanyl)-3-(1.2.3.4-tetramethyl-3-piperidinyl)-1-propanone] |  | 78 | 
C[C@@H]1CCN(C)[C@@H](C)[C@]1(C)CCC(=O)c1ccco1 (relative stereo) [Example 5, 1-(2-furanyl)-3-(1,2,3,4-tetramethyl-3-piperidinyl)-1-propanone] |  | 57 | 
CCOC(=O)CC[C@]1(C)[C@H](C)CCN(Cc2ccccc2)[C@H]1C (relative stereo) [Example 6, ethyl 3-[2,3,4-trimethyl-1-(phenylmethyl)-3-piperidine)propanoate] | 99 |  | 39 ± 5
CC1N(CC2(O)CC2)CCC2CCCCC21CCC(=O)CCC1CCCC1 (stereo not drawn) [Example 10] | 84 |  | 
